Counter-ions that a name gives are not always drawn.
Tested on: Plasmodium falciparum
Assay: In vitro anti-malarial activity against Plasmodium falciparum, IC50 assay / [3H]-Hypoxanthine incorporation assay
Assay type: cell-based
Conditions: Erythrocyte
Method: The compounds of this invention may be tested in one of several biological assays to determine the concentration of compound which is required to have a given pharmacological effect. In vitro anti-malarial activity against Plasmodium falciparum. IC50 assay / [^3H]-Hypoxanthine assay
The culture medium comprised RPMI 1640 with 25mM HEPES, sodium bicarbonate and glutamine (GIBCO™ cat. ref.: 52400), supplemented with 10% of pooled human sera AB (Irvine Scientific, cat. ref.: 5009) and HT supplement (0.15 mM hypoxanthine and 24 µM thymidine), (GIBCO™ cat. ref.: 41065). Human sera were decomplemented 30 min. at 56°C, aliquoted and stored frozen at -20°C until use in this culture medium.
This culture medium ("complete medium") was usually prepared fresh just before use and pre-warmed to 37°C.
Red blood cells O+ stock suspensions were prepared from whole blood bags coming from incomplete blood donation, provided by the Spanish Red Cross (<25 days after sampling). This "whole blood" was aliquoted and stored at 4°C.
To prepare red blood cells for the assay, the whole blood was centrifuged and washed 3 times with RPMI without serum. The upper phase, containing white blood cells was removed. The washed red blood cells were kept as a 50 % suspension in complete medium. The prepared cells were stored at 4°C and were employed in the assay at any time up to 4 days after preparation.
Test compounds were dissolved at 2 mg/ml in 100% DMSO on the day of the assay. If necessary, complete dissolution was achieved by gentle heating (the mixture was heated at a temperature <37°C) and sonication (sonication bath).
For IC50 determinations, 10 serial 2-fold dilutions were prepared in complete medium in the presence of a constant amount of DMSO. Any obvious signs of insolubility of the stock solutions in 100% DMSO or precipitation when these solutions were diluted in assay media, were recorded.
Plasmodium falciparum strains were maintained in complete medium at an hematocrit of 5% in continuous culture using a method adapted from that published by Trager and Jensen(1) and Traeger(2).
The parasitemia was calculated by counting the percentage of parasitized erythrocytes by optical microscopy. Thin films of blood were made every day from each culture flask, fixed with methanol and stained for 10 min. in Giemsa (Merck, cat. ref.: 1.09204) at 10 % in buffered water pH 7.2. The glass slides were observed and counted with an optical microscope (Nikon, Eclipse E200) equipped with a 100 X immersion oil objective.
The culture was maintained at an hematocrit of 5%, with a daily change of medium and was diluted when parasitemia had reached about 5%.
[^3H] Hypoxanthine incorporation assay was conducted using a method adapted from Desjardins et al. (3). The assays were performed in 96 wells flat bottom microplates. • 1. Serial dilutions of the test compounds (50µl of a 5X solution / well) were deposited in duplicate. Compounds of the invention were tested in this assay. Chloroquine and Atovaquone were used as control compounds for each assay. • 2. […] [^3H]-Hypoxanthine (Amersham Biosciences, cat. ref.: TRK74) was added extemporaneously to the inoculum suspension at a concentration of 1 µCi/ml (equating to […]). 200 µl of the resulting suspension was distributed into each well (other than the control well H12 described below) leading to a final volume of 250 µl per well, at 2% of hematocrit and 0.5 % of parasitemia / well. • 4. […]

[1] = Plasmodium falciparum strains in parasitized red blood cells, [3H]-hypoxanthine incorporation, 48 hours at 37°C

Structure (SMILES)	IC50 [1] [µg/mL]	IC50 (Plasmodium falciparum) [µg/mL]
Cc1[nH]c(C)c(-c2ccc(CCCN3CCC(c4ccc(OC(F)(F)F)cc4)CC3)cc2)c(=O)c1Cl [Example 52, 3-Chloro-2,6-dimethyl-5-{4-[3-(4-{4-[(trifluoromethyl)oxy]phenyl}-1-piperidinyl)propyl]phenyl}-4(1H)-pvridinone hydrochloride]		< 0.125
Cc1[nH]c(C)c(-c2ccc(OCCN3CCC(C(F)(F)F)CC3)nc2)c(=O)c1Cl.Cl [Example 68, 5-chloro-2,6-dimethyl-6'-({2-[4-(trifluoromethyl)-1-piperidinyl]ethyl}oxy)-3,3'-bipyridin-4(1H)-one hydrochloride]	0.21	
Cc1[nH]c(C)c(-c2ccc(C#CCN(C)CCC(C)(C)C)cc2)c(=O)c1Cl.Cl [Example 48, 3-Chloro-5-(4-{3-[(3,3-dimethylbutyl)(methyl)amino]-1-propyn-1-yl}phenyl)-2 ,6-dimethyl-4(1H)-pyridinone hydrochloride]	< 0.125	
Cc1[nH]c(CO)c(Cl)c(=O)c1-c1ccc(-c2ccc(CN3CCC(c4ccc(OC(F)(F)F)cc4)CC3)cc2)cc1.Cl [Example 63, 3-chloro-2-(hydroxymethyl)-6-methyl-5-{4'-[(4-{4-[(trifluoromethyl)oxy]phenyl}-1-piperidinyl)methyl]-4-biphenylyl}-4(1H)-pyridinone hydrochloride]	< 0.125	
Cc1[nH]c(C)c(-c2ccc(C#CCN3CCc4cc(C(F)(F)F)ccc4C3)cc2)c(=O)c1Cl.Cl [Example 14, 3-Chloro-2,6-dimethyl-5-(4-(3-[6-(trifluoromethyl)-3,4-dihydro-2(1H)-isoquinolinyl]-1-propyn-1-yl}phenyl)-4(1H)-pyridinone hydrochloride]	< 0.125	
Cc1[nH]c(CO)c(-c2ccc(-c3ccc(CN4CCC(c5ccc(OC(F)(F)F)cc5)CC4)cc3)cc2)c(=O)c1Cl [Example 61, 3-chloro-6-(hydroxymethyl)-2-methyl-5-{4'-[(4-{4-[(trifluoromethyl)oxy]phenyl}-1-piperidinyl)methyl]-4-biphenylyl}-4(1H)-pyridinone]	< 0.125	
Cc1[nH]c(C)c(-c2cccc(C#CCN3CCC(c4ccc(OC(F)(F)F)cc4)CC3)c2)c(=O)c1Cl.O=C(O)C(F)(F)F [Example 30, 3-Chloro-2,6-dimethyl-5-{3-[3-(4-{4-[(trifluoromethyl)oxy]phenyl}-1-piperidinyl)-1-propyn-1-yl]phenyl}-4(1H)-pyridinone trifluoroacetate]	< 0.125	
Cc1[nH]c(C)c(-c2ccc(-c3ccc(CN4CCC(F)(F)C4)cc3)cc2)c(=O)c1Cl.Cl [Example 60, 3-chloro-5-{4'-[(3,3-difluoro-1-pyrrolidinyl)methyl]-4-biphenylyl}-2,6-dimethyl-4(1H)-pyridinone hydrochloride]	< 0.125	
Cc1[nH]c(C)c(-c2ccc(C#CCN(C)Cc3nccs3)cc2)c(=O)c1Cl.Cl [Example 43, 3-Chloro-2,6-dimethyl-5-(4-{3-[methyl(1,3-thiazol-2-ylmethyl)amino]-1-propyn-1-yl}phenyl)-4(1H)-pyridinone hydrochloride]	< 0.125	
Cc1[nH]c(C)c(-c2ccc(-c3ccc(CN4CCC(C(F)(F)F)CC4)cc3)cc2)c(=O)c1Cl.Cl [Example 57, 3-chloro-2,6-dimethyl-5-(4'-{[4-(trifluoromethyl) -1-piperidinyl]methyl}-4-biphenylyl)-4(1H)-pyridinone hydrochloride]	< 0.125	
Cc1[nH]c(C)c(-c2ccc(C#CCN(C)Cc3ccco3)cc2)c(=O)c1Cl.Cl [Example 41, 3-Ch loro-5-(4-{3-[(2-furanylmethyl)(methyl)amino]-1-propyn-1-yl}phenyl)-2,6-dimethyl-4(1H)-pyridinone hydrochloride]	< 0.125	
Cc1[nH]c(C)c(-c2ccc(C#CCN(C)Cc3ccc(C(F)(F)F)cc3C(F)(F)F)cc2)c(=O)c1Cl [Example 4, 3-(4-{3-[{[2,4-Bis(trifluoromethyl)phenyl]methyl}(methyl)amino]-1-propyn-1-yl}phenyl)-5-chloro-2,6-dimethyl-4(1H)-pyridinone]	< 0.125	
Cc1[nH]c(C)c(-c2ccc(C#CCN3CCc4cccc(C(F)(F)F)c4C3)cc2)c(=O)c1Cl.Cl [Example 15, 3-Chloro-2,6-dimethyl-5-(4-{3-[8-(trifluoromethyl)-3,4-dihydro-2(1H)-isoquinolinyl]-1-propyn-1-yl}phenyl)-4(1H)-pyridinone hydrochloride]	< 0.125	
Cc1[nH]c(C)c(-c2ccc(-c3ccc(CN(C)Cc4ccc(OC(F)(F)F)cc4)s3)cc2)c(=O)c1Cl.O=C(O)C(F)(F)F [Example 26, 3-Chloro-2,6-dimethyl-5-[4-(5-{[methyl({4-[(trifluoromethyl)oxy]phenyl}methyl)amino]-methyl}-2-thienyl)phenyl] -4(1H)-pyridinone trifluoroacetate]	< 0.125	
Cc1[nH]c(C)c(-c2ccc3sc(CN(C)Cc4ccc(OC(F)(F)F)cc4)cc3c2)c(=O)c1Cl.Cl [Example 31, 3-Chloro-2,6-dimethyl-5-(2-{[methyl({4-[(trifluoromethyl)oxy]phenyl}methyl)amino]methyl}-1-benzothien-5-yl)-4(1H)-pyridinone hydrochloride]	< 0.125	

Further lines, with some results ahead:

IC50 [1] [µg/mL]	Structure (SMILES)	IC50 (Plasmodium falciparum) [µg/mL]
< 0.125	Cc1[nH]c(C)c(-c2ccc(C#CCN(C)Cc3ccc(OC(F)(F)F)cc3)cc2)c(=O)c1Cl [Example 1, 3-Chloro-2,6-dimethyl-5-(4-{3-[methyl({4-[(trifluoromethyl)oxy]phenyl}methyl)amino]-1-propyn-1-yl}phenyl)-4(1H)-pyridinone]	
< 0.125	Cc1[nH]c(C)c(-c2ccc(-c3cccc(CN(C)Cc4ccc(OC(F)(F)F)cc4)c3)cc2)c(=O)c1Cl.Cl [Example 34, 3-Chloro-2,6-dimethyl-5-(3'-{[methyl({4-[(trifluoromethyl)oxy]phenyl}methyl)amino]methyl}-4-biphenylyl)-4(1H)-pyridinone hydrochloride]	
< 0.125	Cc1[nH]c(C)c(-c2ccc(C#CCN(C)CCc3ccc(OC(F)(F)F)cc3)cc2)c(=O)c1Cl.Cl [Example 17, 3-Chloro-2,6-dimethyl-5-(4-{3-[methyl(2-{4-[(trifluoromethyl)oxy]phenyl}ethyl)amino]-1-propyn-1-yl}phenyl)-4(1H)-pyridinone hydrochloride]	
< 0.125	Cc1[nH]c(C)c(-c2ccc(C#CCN(C)Cc3ccc(C(F)(F)F)cc3)cc2)c(=O)c1Cl [Example 2, 3-Chloro-2,6-dimethyl-5-{4-[3-(methyl{[4-(trifluoromethyl)phenyl]methyl}amino)-1-propyn-1-yl]phenyl}-4(1H)-pyridinone]	
< 0.125	COCCN(CC#Cc1ccc(-c2c(C)[nH]c(C)c(Cl)c2=O)cc1)Cc1ccc(OC(F)(F)F)cc1 [Example 9, 3-Chloro-2,6-dimethyl-5-(4-{3-[[2-(methyloxy)ethyl]({4-[(trifluoromethyl)oxy]phenyl}-methyl)amino]-1-propyn-1-yl}phenyl)-4(1H)-pyridinone]	
< 0.125	Cc1[nH]c(C)c(-c2ccc(C#CCN(C)Cc3ccc(F)cc3)cc2)c(=O)c1Cl [Example 50, 3-Chloro-5-(4-{3-[[(4-fluorophenyl)methyl](methyl)amino]-1-propyn-1-yl}phenyl)-2,6-dimethyl-4(1H)-pyridinone]	
< 0.125	Cc1[nH]c(C)c(-c2ccc(C#CCCN(C)Cc3ccc(OC(F)(F)F)cc3)cc2)c(=O)c1Cl.Cl [Example 18, 3-Chloro-2,6-dimethyl-5-(4-{4-[methyl({4-[(trifluoromethyl)oxy]phenyl}methyl)amino]-1-butyn-1-yl}phenyl)-4(1H)-pyridinone hydrochloride]	
< 0.125	Cc1[nH]c(C)c(-c2ccc(C#CCN(C)Cc3ccccc3C(F)(F)F)cc2)c(=O)c1Cl [Example 3, 3-Chloro-2,6-dimethyl-5-{4-[3-(methyl{[2-(trifluoromethyl)phenyl]methyl}amino)-1-propyn-1-yl]phenyl}-4(1H)-pyridinone]	
< 0.125	Cc1[nH]c(C)c(-c2ccc(CN(C)Cc3ccc(OC(F)(F)F)cc3)cc2)c(=O)c1Cl.Cl [Example 23, 3-Chloro-2,6-dimethyl-5-(4-{[methyl({4-[(trifluoromethyl)oxy]phenyl}methyl)amino]-methyl}phenyl)-4(1H)-pyridinone hydrochloride]	
